Values joined by “and” are separate entries in the source; they are usually repeats but may differ in a detail not shown here. Equal entries are not always repeated.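 Briefly, cells in 96-well plates were exposed to five compound concentrations for 48 h, and endpoints were estimated by linear interpolation. Here, GI50 denotes the concentration required for 50% inhibition of growth. TGI marks complete inhibition of growth.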
What was measured:
Experiment in all cases: growth of human tumour cells (NCI), 48 h
[1] = tested on: MOLT-4 leukemia
[2] = tested on: KM12 colon
[3] = tested on: MDA-N
[4] = tested on: IGROV1 ovarian
[5] = tested on: SW-620 colon
[6] = tested on: SF-268 CNS
[7] = tested on: BT-549 breast
[8] = tested on: A549 NSCLC
[9] = tested on: CAKI-1 renal
[10] = tested on: T-47D breast
[11] = tested on: NCI-H522 lung
[12] = tested on: NCI-H460 lung
[13] = tested on: K-562 leukemia

Row | Structure (SMILES) | TGI [1] | TGI [2] | TGI [3] | TGI [4] | TGI [5] | TGI [6] | TGI [7] | TGI [8] | TGI [9] | TGI [10] | TGI [11] | TGI [12] | TGI [13] | GI50 [1] | GI50 [2] | GI50 [7] | GI50 [8] | GI50 [10] | GI50 [12] | GI50 [13]
1 | COC(=O)/N=[N+](\[O-])C(c1ccccc1)c1ccccc1 | > 100 µM | > 100 µM | > 100 µM | > 100 µM | > 100 µM | > 100 µM | > 100 µM | > 100 µM | > 100 µM | > 100 µM | > 100 µM | > 100 µM | > 100 µM |  |  |  |  |  |  | 
2 | CC1(C)CCCCCCCCCC2CC2CCC(C)(C)C1=O (stereo not given) | 80.1 µM | 34.9 µM | > 100 µM | > 100 µM | > 100 µM | 43.1 µM | 87.4 µM | 57.5 µM | > 100 µM | 47.1 µM | 30 µM | 46 µM | 32.6 µM |  |  |  |  |  |  | 
3 | O=C1CS(=O)(=O)C(c2cccc(Oc3ccccc3)c2)N1C1CC1 (stereo not given) | > 100 µM | > 100 µM | 80.1 µM |  | > 100 µM | > 100 µM | > 100 µM | > 100 µM |  | > 100 µM | > 100 µM | > 100 µM | > 100 µM |  |  |  |  |  |  | 
4 | C/C=C\C(CC(=O)OC)CC(=O)N(CCC1CN(S(=O)(=O)C(F)(F)F)c2ccccc21)Cc1ccc(OC)cc1OC (stereo not given) | > 100 µM | > 100 µM | > 100 µM | > 100 µM | > 100 µM | > 100 µM | > 100 µM | > 100 µM | > 100 µM | > 100 µM | > 100 µM | > 100 µM | > 100 µM |  |  |  |  |  |  | 
5 | COc1ccc2c(c1OC)C(=O)N/C2=C\c1c(CCN(C)C)cc2c(c1OC)OCO2 | > 100 µM | > 100 µM | > 100 µM | > 100 µM | > 100 µM | > 100 µM | > 100 µM | > 100 µM |  | > 100 µM | > 100 µM | > 100 µM | > 100 µM |  |  |  |  |  |  | 
6 | CCOC(=O)c1sc2nc1CSc1sc(=S)sc1SCc1nc(sc1C(=O)OCC)-c1nc(c(C(=O)OCC)s1)CSc1sc(=S)sc1SCc1nc-2sc1C(=O)OCC | > 10 µM | > 10 µM | > 10 µM | > 10 µM | > 10 µM | > 10 µM | > 10 µM | > 10 µM | > 10 µM | > 10 µM | > 10 µM | > 10 µM | > 10 µM |  |  |  |  |  |  | 
7 | CCNc1nnc(-c2ccccc2Nc2ccccc2-c2nnc(NCC)s2)s1 | > 78.3 µM | 37.2 µM | 35 µM | > 100 µM | > 100 µM | 68.6 µM | > 79.7 µM | > 62 µM | 17 µM | > 84.8 µM | 26.9 µM | 31.3 µM | > 100 µM |  |  |  |  |  |  | 
8 | S=C1CC(c2ccccc2)Sc2cc(Cl)ccc2N1 (stereo not given) | 28.2 µM | > 100 µM | 39.6 µM | 84.5 µM |  | 24.7 µM | > 100 µM | 38.4 µM | 29 µM | > 100 µM | 16.9 µM | 22.8 µM | 11.2 µM |  |  |  |  |  |  | 
9 | CC(=O)Oc1ccc2cc(-c3ccc(OC(C)=O)c(OC(C)=O)c3)c(=O)oc2c1 | > 100 µM | 61.3 µM | > 100 µM |  | > 100 µM | > 100 µM | > 100 µM | > 100 µM |  | 62.1 µM | > 100 µM | > 100 µM | > 100 µM |  |  |  |  |  |  | 
10 | O=C(Nc1cccc(C(=O)NCCCO)c1)/C(=C/c1ccccc1)NC(=O)c1ccccc1 | > 100 µM | > 100 µM | > 100 µM | > 100 µM | > 100 µM | > 100 µM | > 100 µM | > 100 µM | > 100 µM | > 100 µM | > 100 µM | > 100 µM | > 100 µM |  |  |  |  |  |  | 
11 | CC1=CC(=O)N(n2c(Cc3ccc(Cl)cc3)n[nH]c2=O)C1=O | 47.4 µM | > 100 µM | > 100 µM | > 100 µM | > 100 µM | > 100 µM | > 100 µM | > 100 µM | > 100 µM | > 100 µM | 35.7 µM | > 100 µM | 72.2 µM |  |  |  |  |  |  | 
12 | Cc1cc2c(cc1Cl)SC(NNC1=NCCN1)=NS2(=O)=O | > 10 µM | > 10 µM | > 10 µM | > 10 µM | > 10 µM | > 10 µM | > 10 µM | > 10 µM | > 10 µM | > 10 µM | > 10 µM | > 10 µM | > 10 µM |  |  |  |  |  |  | 
13 | CCC12C=CCN3CCC4(c5cc(C(c6ccc(OC)cc6)C6Cc7ccccc7N6)c(OC)cc5N(C)C4C(O)(C(=O)OC)C1O)C32 (stereo not given) | 18.2 µM | 36.5 µM | > 100 µM | 51.2 µM | > 100 µM | > 100 µM | 80.6 µM | > 100 µM | > 100 µM | 9.98 µM | 98 µM | 54.5 µM | 41.7 µM |  |  |  |  |  |  | 
14 | CCOC(=O)N/N=C(\CC)OCC | > 100 µM | > 100 µM | > 100 µM | > 100 µM |  | > 100 µM | > 100 µM | > 100 µM | > 100 µM | > 100 µM | > 100 µM | > 100 µM | > 100 µM |  |  |  |  |  |  | 
15 | O=c1[nH]nc(Cc2ccccc2)n1/N=C/c1ccc([N+](=O)[O-])cc1 | > 100 µM | > 100 µM | > 100 µM | > 100 µM | > 100 µM | > 100 µM | > 100 µM | > 100 µM | > 100 µM | > 100 µM | > 100 µM | > 100 µM | > 100 µM |  |  |  |  |  |  | 
16 | C=C1c2nc3ccccc3n2C=C(c2ccc(Cl)cc2)N1c1ccc(OCCN2CCCCC2)cc1 | > 45 µM and 9.22 µM | > 100 µM | 45 µM | > 45 µM | > 45 µM | 45 µM | > 100 µM | > 100 µM | > 45 µM | > 100 µM | 45 µM | 45 µM and > 100 µM | > 100 µM | 0.553 µM | > 100 µM | > 100 µM | > 100 µM | > 100 µM | 1.2 µM | 1.09 µM
17 | C[N+]12C=CC=C1C(N1CCCC1)c1scc(-c3ccc(F)cc3)c12 (stereo not given) | 78.1 µM | > 100 µM | > 100 µM | 36.1 µM | > 100 µM | > 100 µM | 88 µM | > 100 µM | > 100 µM | 80.5 µM | > 100 µM |  | 26.5 µM |  |  |  |  |  |  | 

— PubChem BioAssay (NCI)
